Measurements: patent US6969712B2, “Benzimidazole derivatives” (Banyu Pharmaceutical Co., Ltd., priority 2000, dated 2005)
Counter-ions that a name gives are not always drawn.

Columns and labels:
nociceptin receptor ORL1 [1] = biological target: T1, nociceptin receptor ORL1 (Homo sapiens, UniProt P41146); test: Antagonism against nociceptin-elicited G protein activation (GTPγ[35S] binding); format: biochemical; settings: GTPγ[35S] binding inhibition, CHO/ORL1 cell membrane, 50 nM nociceptin, 25° C., 150 minutes
T1 construct: expressed in transfected cells
T1 sequence (P41146 whole entry): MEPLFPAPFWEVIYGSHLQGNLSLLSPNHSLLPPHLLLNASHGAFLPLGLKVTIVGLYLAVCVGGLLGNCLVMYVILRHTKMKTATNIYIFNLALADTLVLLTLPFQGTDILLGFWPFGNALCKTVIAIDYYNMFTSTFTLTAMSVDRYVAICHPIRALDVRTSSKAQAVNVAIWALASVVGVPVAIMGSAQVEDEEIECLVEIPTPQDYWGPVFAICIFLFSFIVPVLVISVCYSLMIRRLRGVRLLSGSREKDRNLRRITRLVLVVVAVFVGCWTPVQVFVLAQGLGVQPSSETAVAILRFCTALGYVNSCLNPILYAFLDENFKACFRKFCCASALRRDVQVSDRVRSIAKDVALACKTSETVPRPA
Experimental: CHO cells which stably expressed a nociceptin receptor ORL1 were used to investigate the action of tested compounds against nociceptin-elicited G protein activation. A membrane prepared from the CHO/ORL1 cell, 50 nM nociceptin, 200 pM GTPγ[^35S](NEN), 1.5 mg Wheatgerm agglutinin SPA beads (PVT based; Amersham Pharmacia Biotech) and each of the tested compounds were mixed in a GDP buffer (20 mM Hepes, 100 mM sodium chloride, 10 mM magnesium chloride, 1 mM EDTA, 5 μM GDP, pH 7.4) and incubated at 25° C. for 150 minutes, and then the radioactivity was determined. The antagonism against nociceptin-elicited G protein activation was shown by the 50% inhibition concentration (IC50 value) which was calculated from GTP γ [^35S] binding inhibition activity of the compounds of the present invention at various concentrations. From the result it can be understood that the compounds of the invention have antagonism against nociceptin-elicited G protein activation via ORL1 receptor.

nociceptin receptor ORL1 [2] = biological target: T1, nociceptin receptor ORL1; test: Nociceptin receptor binding inhibition assay; settings: inhibition of 50 pM [125I]Tyr14-Nociceptin binding to CHO/ORL1 cell membrane, SPA beads, 37° C., 60 minutes; read-out: IC50 value, nociceptin receptor binding inhibition action
Experimental: cDNA which codes a human nociceptin receptor gene (accession No.X77130) was cloned into an expression vector pCR3 (Invitrogen) to prepare pCR3/ORL1. Next, pCR3/ORL1 was transfected in CHO cells using a transfectam (Nippongene) following the directions in the manual appended to the reagent to obtain a stable expression strain (CHO/ORL1 cells) having resistance against 1 mg/ml concentration G418. A membrane fraction (a precipitate fraction obtained by an hour's centrifuge at 100,000 G of the supernatant resulting from 15 minutes' certrifuge at 10,000 G) was prepared from this stable expression strain to carry out a receptor binding assay.
Eleven (11) μg of the membrane, 50 pM [^125I] Tyr^14-Nociceptin (Amersham Pharmacia Biotech) (specific activity 2000 Ci/mmol), 1 mg Wheatgerm agglutinin SPA beads (PVT based; Amersham Pharmacia Biotech) and a test compound were suspended in an NC buffer (50 mM Hepes, 10 mM sodium chloride, 1 mM magnesium chloride, 2.5 mM calcium chloride, 0.1% BSA, 0.025% bacitracin, pH 7.4) and incubated at 37° C. for 60 minutes, and then the radioactivity was determined with Top Count (Packard). The binding activity to the nociceptin receptor was expressed by the 50% inhibition concentration (IC50 value) which was calculated from the inhibition activity to binding to ORL1 receptor of [^125I] Tyr^14-Nociceptin by the compounds of the present invention at various concentrations.

SMILES | IC50 (nociceptin receptor ORL1 [1]) [nM] | IC50 (nociceptin receptor ORL1 [2]) [nM]
CC(C)(CN1CCOCC1)Sc1nc2cc(N3CCN(CCO)CC3)c(Cl)cc2[nH]1 [Example 101, 5-chloro-2-[(1,1-dimethyl-2-morpholinoethyl)sulfanyl]-6-[4-(2-hydroxyethyl)piperazin-1-yl]benzimidazole trihydrochloride] | 8 | 9.2
CC1(Sc2nc3c(F)c(N4CCN(CCO)CC4)c(Cl)cc3[nH]2)CCCC1 [Example 142, 5-chloro-7-fluoro-6-[4-(2-hydroxyethyl)piperazin-1-yl]-2-[(1-methylcyclopentyl)sulfanyl]benzimidazole] | 0.57 | 0.95
Clc1cc2[nH]c(SCC3CCCCC3)nc2cc1N1CCN(CC2CC2)CC1 [Example 102, 5-chloro-2-[(cyclohexylmethyl)sulfanyl]-6-[4-(cyclopropylmethyl)piperazin-1-yl]benzimidazole] | – | 3.5
CC(CC(C)(C)C)Sc1nc2cc(N3CCNCC3)c(Cl)cc2[nH]1 (centres unmarked) [Example 26, 5-chloro-6-(piperazin-1-yl)-2-[(1,3,3-trimethylbutyl)-sulfanyl]benzimidazole dihydrochloride] | 5.3 | 1.3
CCC(CC)COc1nc2cc(N3CCNCC3)c(Cl)cc2[nH]1 [Referential Example 1, 5-chloro-2-[(2-ethylbutyl)oxy]-6-(piperazin-1-yl)benzimidazole dihydrochloride] | 180 | 7
CCC(CC)Sc1nc2cc(Cl)c(N3CCN(CCO)CC3)cc2[nH]1 [Example 89, 5-chloro-2-[(1-ethylpropyl)sulfanyl]-6-[4-(2-hydroxyethyl)piperazin-1-yl]benzimidazole dihydrochloride] | 6.8 | 6.5
CCCC(CC)Nc1nc2cc(N3CCNCC3)c(Cl)cc2[nH]1 (centres unmarked) [Referential Example 13, 5-chloro-2-[(1-ethylbutyl)amino]-6-(piperazin-1-yl)-benzimidazole dihydrochloride] | – | 430
CCC(CC)Sc1nc2cc(Cl)c(N3CCNCC3)cc2[nH]1 [Example 1, 5-chloro-2-[(1-ethylpropyl)sulfanyl]-6-(piperazin-1-yl) benzimidazole dihydrochloride] | 9.1 | 2.1
